We go through two compounds from patent US9603845B2, “Prophylactic agent and/or therapeutic agent for stress urinary incontinence” (priority 2012, dated 2017).

The subject of one assay is female SD rats. The experiment in a line: Leak point pressure (LPP) of a rat: intravesical pressure when urinary leakage occurs. It counts as in vivo. The following applies: 3 mg/kg intravenous, 5 minutes after administration; for Leak point pressure (LPP): urethane-anesthetized, spinal cord-transected female SD rats, average ± standard error, physiological saline 24.6±0.6.

In assay [1] the test system is stress urinary incontinence model rats. The following applies: rat, in vivo.

Marks after values point to notes of the source that are not given here.

`CCCOC(C(=O)OC1CCN(C)CC1)(c1ccccc1)c1ccccc1` [propiverine, α,α-diphenyl-α-n-propoxy acetic acid 1-methyl-4-piperidyl ester, reference compound]: in the assay on female SD rats, the “LPP compared with the physiological saline group (in words)” value was “no significant difference” and the “Leak point pressure (LPP)” value is 24.9±1.9 cmH2O.

Turning to `CCCOC(C(=O)OC1CCNCC1)(c1ccccc1)c1ccccc1` [the compound of the present invention, 4-piperidyl diphenylpropoxyacetate], in the assay with female SD rats, the “LPP compared with the physiological saline group (in words)” value is given as “significantly higher” and the “Leak point pressure (LPP)” value is given as 31.1±2.3 cmH2O. In assay [1], the “Frequency of urinary incontinence, 30 minutes after administration” value stood at 4; the “Frequency of urinary incontinence, 2 hours after administration” value is recorded as 3*; the “Number of rats that express urinary incontinence due to the electrical stimulus (in words)” value was “significantly decreased”. In assay [1] (po), the “Frequency of urinary incontinence, before administration” value amounted to 8.
